The source of these data is patent publication US20160024051A1, “SALTS AND SOLID FORMS OF ISOQUINOLINONES AND COMPOSITION COMPRISING AND METHODS OF USING THE SAME” (INFINITY PHARMACEUTICALS, INC., priority 2013, published 2016).

Series [1] is described as follows: Storage at 40° C./75% RH (elevated humidity) for 1 week, re-analysis by XRPD/HPLC. To be noted: for Storage 40° C./75% RH: salt screen solids, 1 week, XRPD pattern or observation.
Method: The crystalline solids were filtered, dried at ambient conditions, and stored at 40° C./75% RH for 1 week and analyzed by ^1H NMR/IC.
Samples from the screen using amorphous free base Compound 1 were analysed by ^1H-NMR and DSC, and re-analysis by XRPD was also carried out after drying at 50° C./vacuum and storage at 40° C./75% RH (the same sample was dried and stored at elevated humidity).
Series [2] can be described thus: Gravimetric vapour sorption (GVS). The settings on record: for GVS: moisture on loading: loaded at 40% RH, 25° C.; for GVS: XRPD after the experiment: re-analysis by XRPD after GVS. Type of series: physicochemical. As for the experimental part: Sorption isotherms were obtained using a Hiden IGASorp moisture sorption analyser, controlled by CFRSorp software. The sample temperature was maintained at 25° C. by a Huber re-circulating water bath. The humidity was controlled by mixing streams of dry and wet nitrogen, with a total flow rate of 250 ml/min. The relative humidity (RH) was measured by a calibrated Vaisala RH probe (dynamic range of 0-95% RH), located near the sample. The weight change, (mass relaxation) of the sample as a function of % RH was constantly monitored by the microbalance (accuracy ±0.001 mg). Typically 10-20 mg of sample was placed in a tared mesh stainless steel basket under ambient conditions. The sample was loaded and unloaded at 40% RH and 25° C. (typical room conditions). A moisture sorption isotherm was performed as outlined below (2 scans giving 1 complete cycle). The standard isotherm was performed at 25° C. at 10% RH intervals over a 0-90% RH range.
The software uses a least squares minimisation procedure together with a model of the mass relaxation, to predict an asymptotic value. The measured mass relaxation value must be within 5% of that predicted by the software, before the next % RH value is selected. The minimum equilibration time was set to 1 hour and the maximum to 4 hours. The sample was recovered after completion of the isotherm and re-analysed by XRPD.

Series [3] is described as follows: Polymorphism study: maturation (temperature cycling RT to 50° C.) in solvents, XRPD. Format: physicochemical. As for the experimental part:
One of 21 solvents was added to each vial in a number of aliquots (up to 30 volumes), with shaking. All the samples were then placed under maturation between RT to 50° C. (4 hours at each temperature) for 3 days. After maturation the samples were analysed by XRPD. Clear solutions were cooled to −20° C. (freezer). If no precipitation occurred samples were evaporated at RT.
Samples were placed under maturation between RT-50° C. (4 hours cycle) for 3 days. After maturation the samples were analyzed by XRPD. Clear solutions were then cooled to −20° C. (freezer). If no precipitation occurred, samples were evaporated at RT.
The corresponding solvents and solvent mixtures were added in portions of (a total of) 5, 10, 20, and 30 volumes at 50° C., with shaking, aiming for clear solutions. After each addition, the vials were allowed to shake for 20 minutes, after which observations were made. Solutions were allowed to evaporate, whereas slurries were set for 8 hour temperature cycling maturation, between RT and 50° C., for 5 days.
The oils obtained by solvent evaporation were used for the maturation screen. Anhydrous solvents (5 volumes; 100 μL) were used in order to minimise the amount of water present. Any solutions were allowed to slowly evaporate, whereas slurries were set for 8 hour temperature cycling maturation, between RT and 50° C. […] These were matured for a further 24 hours before performing XRPD analysis.
The selected solvents and solvent mixtures (5 to 20 volumes) were added with stirring. Any solutions were allowed to slowly evaporate, whereas slurries were set for 8 hour temperature cycling maturation, between RT and 50° C., for 2 days.
Crystals were ground in order to analyse them by XRPD. Suspensions were set for temperature cycling for a total of five days after which time XRPD analysis was carried out.

A short description of series [4]: Solubility assessment using FB Hydrate Form 2. The settings on record: for Solubility: (RT). Format: physicochemical. The procedure: The best solvent systems (clear solutions) were methanol:anisole 1:1 and DMSO (10 volumes, at RT), dioxane (10 volumes, 50° C.), chloroform (20 volumes, RT). […]
Series [5] is described as follows: Solubility of free base hydrate and salts versus pH (Table 24). Format: physicochemical.

Bounds are passed on as bounds.

Turning to `COc1cc(-c2cccc3cc([C@H](C)Nc4nc(N)ncc4C#N)n(-c4ccccc4)c(=O)c23)ccn1` [Form 6 of the free base of Compound 1], the “solid form after storage at elevated humidity” value in series [1] (elevated humidity conditions, not specified in the sentence, listed as Form 6) is on record as “conversion to Hydrate Form 3”. Also, in series [2] (text statements, listed as Form 6), the “GVS behaviour (hydration / desolvation)” value is on record as “Desolvation to the anhydrous Form 4”.

With `COc1cc(-c2cccc3cc([C@H](C)Nc4nc(N)ncc4C#N)n(-c4ccccc4)c(=O)c23)ccn1.O` [FB Hydrate Form 2], the XRPD entry in series [3] (FB Hydrate Form 2 in 1-butanol, Maturation) is “Crystalline Form 5”; in series [3] (FB Hydrate Form 2 in 2-MeTHF, Evaporation yielded oil, maturation of oil), “Crystalline Form 5”; in series [3] (FB Hydrate Form 2 in Acetone, Maturation), “Crystalline Form 5”; in series [3] (FB Hydrate Form 2 in DCM:MeOH 1:1, Crystallization in fridge), “Crystalline Form 5 + Form 1”; in series [3] (FB Hydrate Form 2 in DCM, Crystallization in fridge), “Crystalline Form 5”; in series [3] (FB Hydrate Form 2 in DMSO, No crystallization in fridge, set for evaporation), “Amorphous”. Besides, the XRPD result in series [3] (FB Hydrate Form 2 in Dioxane, Evaporation yielded oil, maturation of oil) is recorded as “Crystalline Form 5 + Form 3”; in series [3] (FB Hydrate Form 2 in EtOAc, Maturation) it was “Crystalline Form 5”; in series [3] (FB Hydrate Form 2 in EtOH/5% water, Maturation), “Crystalline Form 5”; in series [3] (FB Hydrate Form 2 in EtOH/water 1:1, Maturation), “Crystalline Form 2”; in series [3] (FB Hydrate Form 2 in EtOH, Maturation), “Crystalline Form 5”; in series [3] (FB Hydrate Form 2 in IPA, Maturation) it was “Crystalline Form 5”. Further, the XRPD entry was “Crystalline Form 5” in series [3] (FB Hydrate Form 2 in IPAc, Maturation); “Crystalline Form 5” in series [3] (FB Hydrate Form 2 in MIBK, Maturation); “Crystalline Form 5” in series [3] (FB Hydrate Form 2 in MeCN/5% water, Crystallization in fridge); “Crystalline Form 5” in series [3] (FB Hydrate Form 2 in MeOH/anisole, Crystallization in fridge); “Crystalline Form 5” in series [3] (FB Hydrate Form 2 in THF, Crystallization in fridge); “Crystalline Form 5” in series [3] (FB Hydrate Form 2 in acetonitrile, Maturation). Besides, the XRPD result in series [3] (FB Hydrate Form 2 in chloroform, Cooling in fridge yielded oil, maturation of oil) was “Crystalline Form 5”. The “Solubility at 50° C.” value is “✓” in series [4] (2-MeTHF, 50 vols); “✓” in series [4] (DCM, 75 vols); “✓” in series [4] (DCM:MeOH 1:1, 75 vols); “✓” in series [4] (Dioxane, 10 vols); “✓” in series [4] (MeCN/5% water, 75 vols); “Almost” in series [4] (THF, 50 vols). Also, in series [4] (THF, 75 vols), the “Solubility at 50° C.” value is “✓”. Further, the Solubility result in series [4] (DMSO, 10 vols) is recorded as “✓”; in series [4] (MeOH/anisole, 10 vols), “✓”; in series [4] (chloroform, 20 vols) it was “✓”.

Turning to `COc1cc(-c2cccc3cc([C@H](C)Nc4nc(N)ncc4C#N)n(-c4ccccc4)c(=O)c23)ccn1` [Form 4 of Free Base Compound 1], in series [2] (between 70-90% RH, with hysteresis on desorption), the “GVS: moisture uptaken” value is given as 4.8 % w/w. For the same compound, in series [2], the “GVS: moisture on loading” value was determined as 0.3 % w/w and the “GVS: XRPD after the experiment” value is reported as “No changes by XRPD after the experiment”.

As for `COc1cc(-c2cccc3cc([C@H](C)Nc4nc(N)ncc4C#N)n(-c4ccccc4)c(=O)c23)ccn1.O=S(=O)(O)O.O=S(=O)(O)O` [Amorphous Bis-Sulfuric Acid Salt], the XRPD result in series [3] (amorphous oil in anhydrous BuOAc 100 μL, maturation 48 h, RT-50° C. cycling) is listed as “Amorphous”; in series [3] (amorphous oil in anhydrous DCM 100 μL, maturation 48 h, RT-50° C. cycling) it was “Amorphous”; in series [3] (amorphous oil in anhydrous DIPE 100 μL, maturation 48 h, RT-50° C. cycling), “Amorphous”; in series [3] (amorphous oil in anhydrous Dioxane 100 μL, maturation 48 h, RT-50° C. cycling), “Amorphous glass”; in series [3] (amorphous oil in anhydrous EtOAc 100 μL, maturation 48 h, RT-50° C. cycling), “Amorphous”; in series [3] (amorphous oil in anhydrous IPA 100 μL, maturation 48 h, RT-50° C. cycling), “Amorphous glass”. For the same compound, the XRPD result in series [3] (amorphous oil in anhydrous Methanol 100 μL, solution set for evaporation) is listed as “Oil”; in series [3] (amorphous oil in anhydrous TBME 100 μL, maturation 48 h, RT-50° C. cycling) it was “Amorphous”; in series [3] (amorphous oil in anhydrous THF 100 μL, maturation 48 h, RT-50° C. cycling), “Amorphous”; in series [3] (amorphous oil in anhydrous Toluene 100 μL, maturation 48 h, RT-50° C. cycling), “Amorphous”.

As to `CC(=O)O.COc1cc(-c2cccc3cc([C@H](C)Nc4nc(N)ncc4C#N)n(-c4ccccc4)c(=O)c23)ccn1.COc1cc(-c2cccc3cc([C@H](C)Nc4nc(N)ncc4C#N)n(-c4ccccc4)c(=O)c23)ccn1` [Batch 1 of Form 6], the “GVS: second cycle reversible moisture uptake” value in series [2] (between 0-90% RH) is given as “cycle shows 4.9%”. Moreover, in series [2], the “GVS: moisture on loading” value is listed as 6.3% w/w moisture on and the “GVS: XRPD after the experiment” value is “anhydrous Form 4”.

For the compound `COc1cc(-c2cccc3cc([C@H](C)Nc4nc(N)ncc4C#N)n(-c4ccccc4)c(=O)c23)ccn1` [listing 1 of 2 here], the “Storage 40° C./75% RH” value in series [1] (listed as 2-Hydroxyethane sulfonic acid) is on record as “Deliquesced”.

For the compound `COc1cc(-c2cccc3cc([C@H](C)Nc4nc(N)ncc4C#N)n(-c4ccccc4)c(=O)c23)ccn1.O=C(O)/C=C\C(=O)O` [Maleic acid salt], the Solubility in series [5] (0.1N HCl, 37° C., at saturation) was 34 mg/mL; in series [5] (Simulated Gastric Fluid), above 19 mg/mL; in series [5] (Simulated Intestinal Fluid) it was 0.01 mg/mL; in series [5] (Water (pH 4.43)) it was ~0.2 mg/mL (pH 4.43); in series [5] (citrate buffer, pH 2.5, at 37° C.), 3.13 mg/mL at 37 °C; in series [5] (citrate buffer, pH 2.5, at RT) it was 1.8 mg/mL at RT;. For the same compound, the Solubility is given as above 4 in series [5] (pH 1.6, 37° C.); above 4 in series [5] (pH 1.6, RT); 3.07 in series [5] (pH 2.5, 37° C.); 3.57 in series [5] (pH 2.5, RT); 1.62 in series [5] (pH 2.9, 37° C.); 1.39 in series [5] (pH 2.9, RT). Moreover, the Solubility is listed as 0.31 in series [5] (pH 3.8, 37° C.) and 0.24 in series [5] (pH 3.8, RT).

For `COc1cc(-c2cccc3cc([C@H](C)Nc4nc(N)ncc4C#N)n(-c4ccccc4)c(=O)c23)ccn1` [listing 2 of 2 here], the “Storage 40° C./75% RH” value in series [1] (listed as 1-2-Ethane disulfonic acid) is listed as “acid salt Pattern 1”.
